From US9938240B2, “Fluorinated derivatives of 3-hydroxypyridin-4-ones” (Apotex Technologies Inc., priority 2009, dated 2018)

Tests used:
[1] = Stoichiometry of Fe-complexes by Job's method; format: physicochemical; settings: 0.1 M MOPS pH 7.4, absorbance at 458 nm
Procedure: In a typical experiment Fe-Apo7053 complex solutions were prepared by mixing a stock solution of Fe^2+ (atomic absorption standard, 989 μg/mL in 1 wt % HCl, Aldrich) and a stock solution of Apo7053 (7.88×10^−3 M in 0.1 M MOPS, pH 7.4). Twelve sample solutions were prepared. While the sum of the total iron concentration ([iron]total) and the total ligand concentration ([L]total) in each of the 12 sample solutions were kept constant (8.00×10^−4 M), the molar fraction of the ligand, α (α=[L]total/([L]total+[iron]total)), for the 12 sample solutions were different, and were prepared as 0.0, 0.1, 0.2, 0.3, 0.4, 0.5, 0.6, 0.7, 0.75, 0.8, 0.9 and 1.0, respectively. The total volume for each of the 12 sample solutions was 5 mL, using MOPS (0.1 M, pH 7.4) as the solvent. The pH of the 12 solutions were adjusted to pH 7.4 with NaOH. The sample solutions were vortexed at rt for 2.5 h, and then stayed at rt overnight. The sample solutions were centrifuged at 4000 rpm for 15 min. The UV-Vis spectrum was recorded at 22° C. for each of the 12 solutions.
A Job's plot was created with the absorbance at 458 nm as the y-axis and α as the x-axis. A maximum absorbance was found at α=0.75, which corresponds to an iron:ligand ratio of 1:3 in the complexes.

[2] = Benzoic acid hydroxylation assay; settings: benzoic acid 1 mM, H2O2 6 mM, FeCl3 30 μM, chelator 30 μM, pH 7.4, up to 81 h
Description: Benzoic acid is a hydroxyl radical scavenger and reacts with hydroxyl radical to give 2-hydroxy, 3-hydroxy and 4-hydroxybenzoic acids. The benzoic acid hydroxylation assay is a chemical assay designed to detect damage caused by hydroxyl radical (Dean and Nicholson, Free Radical Research 1994, vol 20, 83-101). For example, deferiprone suppresses the formation of hydroxybenzoic acids in the presence of iron salts and hydrogen peroxide, while EDTA and iron salts allow such hydroxylation reactions to take place.
This screening assay involves the use of iron salt, benzoic acid, hydrogen peroxide and the chelator and measures the ability of the chelator to inhibit the formation of hydroxybenzoate as an indicator to prevent hydroxyl radical formation in living system.
Briefly, this procedure is based on the ability of hydroxyl radicals to hydroxylate benzoate to give 2-, 3- and 4-hydroxylated benzoic acid products. Benzoic acid (1 mM) is incubated over time up to 81 h at room temperature in the dark in 10 mM phosphate buffer (pH 7.4) with 6 mM hydrogen peroxide, ferric chloride (30 μM) and the Fe chelator (30 μM). HPLC is the method of choice used to monitor and quantify the amount of 2-, 3- and 4-hydroxylated products formed over time in the reaction mixture, and can be verified against authentic benzoic acid and its hydroxylated products via their respective retention times and areas under curve. In addition, several controls are used: (i) a control without added Fe stock solution and Fe chelator; (ii) a control without added Fe chelator; (iii) EDTA as positive control; and (iv) deferiprone as negative control. The Fe-EDTA system is a hydroxyl radical generator and is known to promote hydroxylation of benzoic acid.

[3] = system: SH-SY5Y human neuroblastoma cells
In short: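 SH-SY5Y cells were treated with a range of compound concentrations, with or without 50 μM H2O2, in serum-free medium for 16–22 h. Viability was measured by MTT and expressed relative to cells receiving neither H2O2 nor compound. Runs without H2O2 assessed cytotoxicity.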

[4] = system: human neuroblastoma MC-65 cells; assay: cells
In short: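 MC-65 cells (conditional Aβ fusion-protein expression, TET-repressed) were washed free of TET and FBS, then exposed to compound ~48 h in serum-free medium without or with 1 μg/mL TET.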

Q: For `Cc1c(O)c(=O)c(C(N(C)C)C(F)(F)F)cn1C` (centres unmarked) [Apo7053, 5-[1-(dimethylamino)-2,2,2-trifluoroethyl]-3-hydroxy-1,2-dimethylpyridin-4(1H)-one], which “molar fraction of ligand α at maximum absorbance (Job's plot)” value [1] is on record?
A: 0.75

Q: What about the “hydroxylation of benzoic acid by Fe chelate” value [2] of the same compound?
A: do not promote the hydroxylation of benzoic acid

Q: And the “CC2 (cytotoxic concentration)” value ([3]; H2O2-treated cells, viability below 80%)?
A: >640 µM

Q: And the “CC1 (cytotoxic concentration)” value ([3]; absence of H2O2, viability below 80%)?
A: 2.2 µM

Q: And the EC100 ([4]; Homo sapiens, MC65, 48 h, read-out: EC100 (maximum effective concentration))?
A: 10 µM

Q: And the minimal effective concentration ([4]; Homo sapiens, MC65, 48 h, read-out: TH (threshold protective concentration))?
A: 0.1 µM

Q: And the “CC2 (cytotoxic concentration)” value ([4]; MC-65, cultured without tetracycline, viability below 80%)?
A: 20 µM

Q: And the “CC1 (cytotoxic concentration)” value ([4]; MC-65, presence of TET, viability below 80%)?
A: 40 µM
